Key:
[1] = Chromatographic hydrophobicity index of compound at pH 2.0 by reversed-phase HPLC analysis; format: ADME
[2] = Chromatographic hydrophobicity index of compound at pH 7.4 by reversed-phase HPLC analysis; format: ADME
[3] = Chromatographic hydrophobicity index of compound at pH 10.5 by reversed-phase HPLC analysis; format: ADME
[4] = Metabolic stability in mouse liver microsomes assessed as half life at 0.5 uM measured upto 30 mins in presence of NADPH by LC-MS/MS analysis; format: ADME, Microsome
[5] = Metabolic stability in mouse liver microsomes assessed as intrinsic clearance at 0.5 uM measured upto 30 mins in presence of NADPH by LC-MS/MS analysis; format: ADME, Microsome; conditions: read-out: CLH
in vitro = conditions: mouse
[6] = Permeability of the compound assessed as membrane retention; format: ADME

CHI [1]	CHI [2]	CHI [3]	half-life at 0.5 µM [4] [min]	microsomal CLint at 0.5 µM [5] [µL/min/mg]	Papp at 2 h, 20 µM (in vitro) [×10⁻⁶ cm/s]	R% [6]	SMILES
53.7	92.9	97.8	–	–	–	–	CN(CCc1cccs1)Cc1ccc(COc2ccc3c(CO)cc(=O)oc3c2)cc1
54.3	85.5	95.2	13.5	103	5.9	–	CN(CCc1ccsc1)Cc1ccc(COc2ccc3c(CO)cc(=O)oc3c2)cc1
29.9	65.3	69.3	5.97	233	–	–	CN(CCc1cccnc1)Cc1ccc(COc2ccc3c(CO)cc(=O)oc3c2)cc1
50.7	90.3	95	22.7	61.2	8	–	CN(Cc1ccc(COc2ccc3c(CO)cc(=O)oc3c2)cc1)Cc1ccsc1
50.4	96.5	98	–	–	–	–	CN(Cc1ccc(COc2ccc3c(CO)cc(=O)oc3c2)cc1)Cc1cccs1

Continued, compound first:

SMILES	CHI [1]	CHI [2]	CHI [3]	half-life at 0.5 µM [4] [min]	microsomal CLint at 0.5 µM [5] [µL/min/mg]	Papp at 2 h, 20 µM (in vitro) [×10⁻⁶ cm/s]	R% [6]
CN(Cc1ccccc1)Cc1ccc(COc2ccc3c(CO)cc(=O)oc3c2)cc1	53	98	102.1	–	–	–	–
CN(Cc1ccc(COc2ccc3c(CO)cc(=O)oc3c2)cc1)Cc1cncnc1	35.9	62.6	61.4	–	–	–	–
CN(Cc1ccc(COc2ccc3c(CO)cc(=O)oc3c2)cc1)Cc1cccnc1	32.9	70.6	70.9	–	–	–	–
CN(Cc1ccc(COc2ccc3c(CO)cc(=O)oc3c2)cc1)Cc1ccco1	47.2	83.5	85.1	–	–	–	–
CN(Cc1ccncc1)Cc1ccc(COc2ccc3c(CO)cc(=O)oc3c2)cc1	32.3	–	72	–	–	–	–
CN(Cc1ccc(COc2ccc3c(CO)cc(=O)oc3c2)cc1)Cc1nccs1	42.7	76.7	76.1	–	–	–	–
CN(Cc1ccc(COc2ccc3c(CO)cc(=O)oc3c2)cc1)Cc1cscn1	42.2	68.3	69.9	–	–	–	–
CN(Cc1ccc(COc2ccc3c(CO)cc(=O)oc3c2)cc1)Cc1ncc[nH]1	34.6	51.6	50.7	–	–	–	~ 50%
